# Data: US20050155093A1, “Rabbit nuclear cloning method and uses thereof” (Institute National de Ia Recherche Agronomique, priority 2002, published 2005)
# Values joined by “and” are separate entries in the source; they are usually repeats but may differ in a detail not shown here. Equal entries are not always repeated.
# Tested on: rabbit MII oocytes
# Experiment: In vitro development after parthenogenic activation of rabbit oocytes (electrical activation, then incubation in M199 with drug)
# Format: cell-based
# Method: Metaphase II (MII) oocytes are collected from superovulated “New Zealand” rabbits by injections of FSH hormones followed by an injection of HCG hormone, mated with a vasectomized male 16 hours after injection of human choriogonadotrophin (hCG). The oocytes are then incubated in 0.5% hyaluronidase for 15 min (Sigma) in order to remove the cumulus cells by gentle pipeting. For the nuclear transfer, the oocytes are enucleated as previously described (Adenot et al., 1997). Simultaneously, cumulus cells are collected either from rabbits of “New Zealand” breed or from F1 rabbits obtained by a cross between rabbits of “New Zealand” breed crossed with rabbits of “Fauves de Bourgogne” breed or “New Zealand” transgenic F1 female rabbits containing a DNA construct with a sequence encoding the enhanced green fluorescence protein (eGFP) placed under the control of an EF1 (“elongation factor 1”) promoter or of an HMG promoter. The eGFP fluorescence and the PCR amplification reactions are used as markers for the cumulus donor cells. The cumulus cells are then stored at 38° C. in PBS without calcium or magnesium supplemented with 1% PVP 40 000 (polyvinylpyrrolidone (PVP)) which are then used as nucleus donor cells.
# To reconstruct the embryos by nuclear transfer (NT), individual cumulus cells are inserted by micromanipulation into the zona pellucida of the enucleated oocytes. The embryos obtained by nuclear transfer (NT embryos) and the MII oocytes are activated in the following manner: 2 phases of electrical stimulations are applied 1 hour apart with a Grass stimulator (3 pulses of continuous current of 3.2 kV×cm^−1 for 20 μs each in 0.3 M mannitol containing 0.1 mM of Ca^2+ and of Mg^2+), the first phase inducing the fusion of the oocyte and of the cumulus cell. The reconstituted embryos are maintained for one hour in a culture medium at 38° C. […] After extensive washing to remove the drugs, the cells are again placed in culture in a microdrop of 50 μl of B2 medium supplemented with 2.5% fetal calf serum (FCS) in mineral oil (Sigma M8410) at 38° C. under an atmosphere saturated with 5% CO2. This activation protocol is applied to the NT embryos about 18 to 20 hours after mating of the donors.
# The microtubular organization and the chromatin in the NT embryos at the 1 cell stage are observed as previously described (Adenot et al., 1997), except that the fixing state lasts for 20 min at 37° C. and that the mounting medium is Vectashield (Vector Laboratories). The rates of cleavage of the NT embryos and of the parthenotes are evaluated from 21 hours to 23 hours after electrostimulation. The rates of development up to the blastocyst stage are estimated after an in vitro culture of 3 to 4 days. For the evaluation of the number of cells, the embryos are fixed as previously described, and then stained with Hoechst […] at 1 μg/ml and then mounted on slides with wells in Vectashield and analyzed by epifluorescence. The controls are blastocysts which either developed in vitro from a 1 cell embryo collected from a superovulated rabbit or which developed in vivo from nonsuperovulated females crossed with a male and then sacrificed 3 or 4 days later.
# [1] = 30 min incubation in M199 + drug after electrical activation
# [2] = 1 h incubation in M199 + drug after electrical activation
# [3] = 1 h incubation in M199 + drug after electrical activation, cleavage at 2 cell stage
# [4] = 4 h incubation in M199 + drug after electrical activation
Compound,Number of blastocysts [1],Number of cleaved oocytes [1],blastocysts (%) [1] [%],cleaved oocytes (%) [1] [%],Number of blastocysts [2],Number of cleaved oocytes [2],blastocysts (%) [2] [%],cleaved oocytes (%) [3],Number of blastocysts [4],Number of cleaved oocytes [4],blastocysts (%) [4] [%],cleaved oocytes (%) [4] [%]
"C[C@@H]1C[C@@H]([C@H](O)CC2CC(=O)NC(=O)C2)C(=O)[C@@H](C)C1 [CHX, cycloheximide]",19,41,39.6,85.4,24,45,50,94% and 93.7%,25,47,52.1,97.9
"CN(C)c1ncnc2nc[nH]c12 [6-DMAP, 6-dimethylaminopurine]",32,43,66.7,89.6,38 and 35,46 and 47,72.9,96% and 95.8% and 97.9%,–,–,–,–
